{"source": "patent US20230310441A1", "about": "“TREATMENT FOR SCHIZOPHRENIA” (TAKEDA PHARMACEUTICAL COMPANY, priority 2020, published 2023)", "type_in_all_cases": "in vivo, human", "key": {"[1]": {"test": "Brief Assessment of Cognition in Schizophrenia (BACS) composite score", "protocol": "(§1) On Day 1 of each treatment period, following study drug administration, and commencing at approximately 2 h post-dose, subjects underwent PD tests for a total of approximately 4 h. Blood samples were collected at defined times after dosing to assess the PK of Compound (I). After the last PK collection at 6 h post-dose, subjects left the clinic. On Day 14 of each Treatment Period, subjects took the second set of PD tests along with a single time point PK collection. Samples for PK were also collected on Day 49 and at the final visit of the second treatment period. PD testing were performed in 3 blocks, separated by 2 breaks. The first block comprised the Grip Effort Task, the Progressive Ratio Test, and the Brief Assessment of Cognition in Schizophrenia (BACS). The BACS is a reliable and sensitive test battery specifically designed to efficiently assesses important cognitive deficits in patients with schizophrenia; accordingly, the BACS is suited for repeated testing in a clinical trial setting (Keefe et al., 2004). […] The following domains of cognitive function found to be consistently impaired in schizophrenia were assessed in this study: verbal memory; working memory; motor function; attention and processing speed; verbal fluency; and executive function. A composite score was calculated from each of the subset scores and used as a single endpoint for the assessment.\nThe BACS consisted of items across 6 subtests: Verbal Memory, Digit Sequencing, Token Motor, Verbal Fluency, Symbol Coding, and Tower of London.\n(§2) The observed BOLD signal was summarized (N, mean, median, SD, minimum, and maximum) by treatment (Compound (I) (overall and by dose) and placebo) and time. The BACS composite score was summarized for baseline, post-dose, and change from baseline by treatment, dose, and time.\nEach of the primary PD measures was analyzed using a Bayesian normal linear model with effects for sequence, period, treatment, time (as a categorical variable), the treatment-by-time interaction, subject within treatment sequence, and baseline (for BACS only). For the BOLD fMRI, the observed value was the response variable in the model. For the BACS, the observed and the change from baseline were modeled separately. Missing values were not imputed and were not included in the model under a missing at random assumption. A diffuse normal distribution with mean zero and variance 106 was used as a prior for the regression coefficients and a diffuse inverse gamma with shape and scale parameters of 0.01 for the residual variance. […]"}, "[2]": {"test_system": "ventral striatum activation", "test": "fMRI BOLD ventral striatum activation in the MID Reward Task", "description": "After a break, subjects took the second block that comprised a battery of imaging tests; namely, brain perfusion using non-contrast arterial spin labeling MRI and fMRI scans which monitor changes in blood oxygen level-dependent (BOLD) signal. The fMRI was run in resting state without a task (resting state fMRI) and with 2 tasks (2-task fMRI) using the monetary incentive delay (MID) Reward Task and a Set-Shifting Task. After a break, subjects took the third block which comprised the Effort Expenditure for Rewards Task and the Empathic Accuracy Task. Subjects also received the Positive and Negative Syndrome Scale (PANSS), the Brief Negative Syndrome Scale (BNSS), and the Clinical Global Impression (CGI) Scales (CGI-Severity and CGI-Improvement) as a part of the PD assessment.\nThe BOLD signal in the average of the left and right ventral striatum activation in the MID Reward Task 3.5 h post-dose on Day 1 and the BACS composite score on Day 14 were the primary PD measures.\nas §2\nEach of the primary PD measures was analyzed using a Bayesian normal linear model with effects for sequence, period, treatment, time (as a categorical variable), the treatment-by-time interaction, subject within treatment sequence, and baseline (for BACS only). For the BOLD fMRI, the observed value was the response variable in the model. For the BACS, the observed and the change from baseline were modeled separately. Missing values were not imputed and were not included in the model under a missing at random assumption. A diffuse normal distribution with mean zero and variance 106 was used as a prior for the regression coefficients and a diffuse inverse gamma with shape and scale parameters of 0.01 for the residual variance.\nThe criteria for a positive result at the IA was 70% posterior probability (or greater) of a difference between Compound (I) and placebo >0.09 in ventral striatum activation in the MID fMRI at 3.5 h post-dose on Day 1 or 70% (or greater) posterior probability of a difference between Compound (I) and placebo >2 points in the BACS composite score at Day 14."}, "[3]": {"test": "Phase 2 crossover study: plasma pharmacokinetics in schizophrenia subjects", "conditions": "for AUC(0-inf) / Cmax / Tmax: human, plasma, schizophrenia subjects; for Tmax: read-out: median tmax", "protocol": "as §1\nDosing involved participants drinking a single bottle of oral suspension, containing either Compound (I) (40 or 160 mg Compound (I) mixed with 70 mL Tween/MC vehicle) or placebo (70 mL of Tween/MC vehicle) (Table 11). Participants were instructed to drink the full contents of the bottle, which was then rinsed twice with 35 mL water, which participants also drank. The initial dose level selected was 40 mg, which was adjusted to 160 mg following a planned interim analysis of available PK and safety data from emerging first-in-human cohort data.\nThe PK set consisted of all subjects who received at least 1 dose of study drug and had at least 1 measurable plasma concentration.\nCompound (I) plasma concentrations were tabulated and summarized by descriptive statistics at each scheduled time point (mean, median, SD, percent coefficient of variation, minimum, and maximum) for each treatment and dose level. Individual subject plasma concentration data were listed.\nThe plasma PK parameters of Compound (I) were determined from the concentration-time profiles for all evaluable subjects. Actual sampling times, rather than scheduled sampling times, were used in all computations involving sampling times. The following PK parameters were calculated using non-compartmental analysis using Phoenix WinNonLin (version 6.3 or higher): area under the plasma concentration-time curve from time 0 to time t, area under the plasma concentration-time curve from time 0 to infinity (AUC∞), maximum observed plasma concentration (Cmax), time of first occurrence of Cmax (tmax), and terminal disposition phase half-life."}}, "note": "Where two headings read alike, the source gives them in different places."}
{"smiles": "C[C@H](NC(=O)Cn1nnc2ccccc2c1=O)c1ccc(OC(F)(F)F)cc1", "note": "[Compound (I), (S)-2-(4-oxobenzo[d][1,2,3]triazin-3(4H)-yl)-N-(1-(4-(trifluoromethoxy)phenyl)ethyl)acetamide]", "values": [{"measurement": "posterior mean (SD) for the difference to placebo, BACS composite score", "setting": "[1]; Day 14, 40 mg", "value": "−0.23 (2.95)"}, {"measurement": "posterior mean (SD) for the difference to placebo, BACS composite score", "setting": "[1]; Day 14, 160 mg", "value": "−0.84 (1.87)"}, {"measurement": "posterior mean (SD) for the difference to placebo, BACS composite score", "setting": "[1]; Day 14, overall", "value": "−0.61 (1.50)"}, {"measurement": "BACS performance", "setting": "[1]; phase 2", "value": "not seen to be affected"}, {"measurement": "ventral striatal activation relative to placebo", "setting": "[2]; Day 1", "value": "decrease in ventral striatal activation"}, {"measurement": "posterior mean (SD) for the difference to placebo, fMRI BOLD endpoint", "setting": "[2]; Day 1, 40 mg", "value": "−0.1 (0.21)"}, {"measurement": "posterior mean (SD) for the difference to placebo, fMRI BOLD endpoint", "setting": "[2]; Day 1, 160 mg", "value": "−0.15 (0.14)"}, {"measurement": "posterior mean (SD) for the difference to placebo, fMRI BOLD endpoint", "setting": "[2]; Day 1, overall", "value": "−0.14 (0.11)"}, {"measurement": "ventral striatal activation relative to placebo", "setting": "[2]; Day 14", "value": "dose-related increase in activation relative to placebo"}, {"measurement": "increase of mean AUC∞ for a 4-fold increase in dose", "setting": "[3]; 40 to 160 mg", "value": 3.5, "unit": "fold"}, {"measurement": "increase of mean Cmax for a 4-fold increase in dose", "setting": "[3]; 40 to 160 mg", "value": 2.8, "unit": "fold"}, {"measurement": "AUC(0-inf)", "setting": "[3]; single oral dose 40 mg", "value": 217, "unit": "µg·h/mL"}, {"measurement": "Cmax", "setting": "[3]; single oral dose 40 mg", "value": 549, "unit": "ng/mL"}, {"measurement": "Tmax", "setting": "[3]; single oral dose 40 mg", "value": 1.83, "unit": "h"}, {"measurement": "AUC(0-inf)", "setting": "[3]; single oral dose 160 mg", "value": 763, "unit": "µg·h/mL"}, {"measurement": "Cmax", "setting": "[3]; single oral dose 160 mg", "value": 1520, "unit": "ng/mL"}, {"measurement": "Tmax", "setting": "[3]; single oral dose 160 mg", "value": 1.92, "unit": "h"}]}
